According to patent publication US20110236359A1 (priority 2007, published 2011):
In brackets after ≈: the same amount, converted by molar mass. Like-named read-outs stand apart in the source and are kept apart here.

Experiments:
Test in all cases: Antibiotic MIC plates (resistance profile)
Assay type in all cases: cell-based
[1] = system: Lactococcus lactis subsp. lactis MM19; settings: MM19, median of two repetitions
Source text: (§1) The protocol was adapted from Delgado et al. (2005). Minimum Inhibitory Concentration (MIC) Plate (# GPN3F) and Anaerobe MIC Plate (# AN02B) were used to determine the antibiotic sensitivity and resistance profile of MM19 and MM33 according to the instructions of the manufacturer (Trek Diagnostic Systems; Nova Century, Burlington, ON, Canada).
(§2) Lactococcus lactis subsp. lactis MM19, Pediococcus acidilactici MM33 and Lactobacillus rhamnosus GG (ATCC 53103) from frozen glycerol stock were first inoculated in Lactobacilli MRS and incubated at 37° C. for 18 h. 100 μl of this culture were further incubated under the same conditions. This second culture was then inoculated on a MRS agar plate and incubated at 37° C. for 48 h under anaerobic conditions using GasPak Plus system (BD BBL, Sparks, Md., USA).

[2] = system: Lactobacillus rhamnosus GG (ATCC 53103); settings: median of two repetitions
Source text: as §1, §2

[3] = system: Pediococcus acidilactici MM33; settings: median of two repetitions
Source text: as §1, §2

[4] = Lactococcus lactis, ANO2 plate, read-out: MIC
[5] = Lacticaseibacillus rhamnosus, ATCC53103, L. rhamnosus GG, ANO2 plate, read-out: MIC
[6] = Pediococcus acidilactici, MM33, MM33, ANO2 plate, read-out: MIC
[7] = Lactococcus lactis, GPN3F plate, read-out: MIC
[8] = Lacticaseibacillus rhamnosus, ATCC53103, L. rhamnosus GG, GPN3F plate, read-out: MIC
[9] = Pediococcus acidilactici, MM33, MM33, GPN3F plate, read-out: MIC

| Compound | MIC [1, 4] [µg/mL] | MIC [2, 5] [µg/mL] | MIC [3, 6] [µg/mL] | MIC ([1]; GPN3F plate) | MIC ([2]; L. rhamnosus GG, GPN3F plate) | MIC ([3]; MM33, GPN3F plate) | other results |
| --- | --- | --- | --- | --- | --- | --- | --- |
| CC1(C)S[C@@H]2[C@H](NC(=O)[C@H](NC(=O)N3CCN(S(C)(=O)=O)C3=O)c3ccccc3)C(=O)N2[C@H]1C(=O)O [MEZ, Mezlocillin] | < 4 | < 4 | 8 (≈ 14.8 µM) |  |  |  |  |
| Cc1ncc([N+](=O)[O-])n1CCO [MRD, Metronidazole] | > 16 | > 16 | > 16 |  |  |  |  |
| CCN1CCN(C(=O)N[C@@H](C(=O)N[C@@H]2C(=O)N3[C@@H]2SC(C)(C)[C@@H]3C(=O)O)c2ccccc2)C(=O)C1=O [PIP, Piperacillin] | < 4 | < 4 | 8 (≈ 15.5 µM) |  |  |  |  |
| CO[C@H]1/C=C/O[C@@]2(C)Oc3c(C)c(O)c4c(O)c(c(/C=N/N5CCN(C)CC5)c(O)c4c3C2=O)NC(=O)/C(C)=C\C=C\[C@H](C)[C@H](O)[C@@H](C)[C@@H](O)[C@@H](C)[C@H](OC(C)=O)[C@@H]1C [RIF, Rifampin] |  |  |  |  |  |  | MIC [1, 7]: > 4 µg/mL; MIC [2, 8]: < 0.5 µg/mL; MIC [3, 9]: 0.5 to 1 µg/mL (≈ 0.608 to 1.22 µM) |
| [H]/N=C(/N)N[C@H]1[C@H](O)[C@@H](O)[C@H](O[C@@H]2O[C@@H](C)[C@](O)(C=O)[C@H]2O[C@@H]2O[C@@H](CO)[C@H](O)[C@@H](O)[C@@H]2NC)[C@@H](N/C(N)=N\[H])[C@@H]1O [STR, Streptomycin] |  |  |  |  |  |  | MIC [1, 7]: < 1000 µg/mL; MIC [2, 8]: < 1000 µg/mL; MIC [3, 9]: < 1000 µg/mL |
| CO[C@@]1(NC(=O)C2SC(=C(C(N)=O)C(=O)O)S2)C(=O)N2C(C(=O)O)=C(CSc3nnnn3C)CS[C@@H]21 (some centres unmarked) [TANS, Cefotetan] | > 64 | > 64 | > 64 |  |  |  |  |
| CN(C)[C@@H]1C(O)=C(C(N)=O)C(=O)[C@@]2(O)C(O)=C3C(=O)c4c(O)cccc4[C@@](C)(O)[C@H]3C[C@@H]12 [TET, Tetracycline] | 0.375 (≈ 0.844 µM) | 1 (≈ 2.25 µM) | > 8 |  |  |  | MIC [1, 7]: < 2 µg/mL; MIC [2, 8]: < 2 µg/mL; MIC [3, 9]: > 16 µg/mL |
| Amoxicillin/Clavulanic acid [AUG] |  |  |  |  |  |  | MIC ([3]; MM33, ANO2 plate): 4/2 |
| Ampicillin/Sulbactam [A/S] |  |  |  |  |  |  | MIC ([3]; MM33, ANO2 plate): 4/2 |
| Gentamicin |  |  |  | 2 to 4 µg/mL | <2 µg/mL | <2 µg/mL |  |
| Oxacillin + 2% NaCl [OXA+] |  |  |  | 1 µg/mL | 0.25 to 0.5 µg/mL | 2 µg/mL |  |
| Penicillin |  |  |  | 0.25 to 0.5 µg/mL | 0.5 µg/mL | 0.5 µg/mL | MIC ([1]; ANO2 plate): 0.5 µg/mL; MIC ([2]; L. rhamnosus GG, ANO2 plate): 0.5 µg/mL; MIC ([3]; MM33, ANO2 plate): 1 µg/mL |
| Piperacillin/Tazobactam [P/T] |  |  |  |  |  |  | MIC ([1]; ANO2 plate): 2/4; MIC ([2]; L. rhamnosus GG, ANO2 plate): 1/4; MIC ([3]; MM33, ANO2 plate): 8/4 |
| Quinupristin/Dalfopristin [SYN] |  |  |  | 4 µg/mL | 1 to 2 µg/mL | 1 µg/mL |  |
| Trimethoprim/Sulfamethoxazole [SXT] |  |  |  | >4/76 | >4/76 | >4/76 |  |
